Data taken from patent US20220226321A1, “INHIBITOR OF MNK FOR THE TREATMENT OF NEUROPATHIC PAIN” (Board of Regents, The University of Texas System, priority 2019, published 2022).

Test system: Nav1.8-positive nociceptors
Assay type: in vivo, mouse
Conditions: Nav1.8-TRAP after paclitaxel

CC(=O)O[C@H]1C(=O)[C@@]2(C)[C@H]([C@H](OC(=O)c3ccccc3)[C@]3(O)C[C@H](OC(=O)[C@H](O)[C@@H](NC(=O)c4ccccc4)c4ccccc4)C(C)=C1C3(C)C)[C@]1(OC(C)=O)CO[C@@H]1C[C@@H]2O [paclitaxel]
Log2FC 0st4: 1.718
Log2FC 2010107E04Rik: 2.12
Log2FC 2310039H08Rik: 5.143
Log2FC 2700094K13R1k: 3.302
Log2FC 4833439L19R1k: 2.132
Log2FC Aars2: 2.418
Log2FC Acadvl: 1.927
Log2FC Acap3: 3.498
Log2FC Acp1: 1.942
Log2FC Adamts8: 3.561
Log2FC Adcy6: 2.711
Log2FC Alkbh3: 6.476
Log2FC Amacr: 2.955
Log2FC Amd1: 3.371
Log2FC Amer2: 2.706
Log2FC Anapc13: 3.575
Log2FC AngptI2: 2.189
Log2FC Ankrd13b: 2.385
Log2FC Anxa5: 1.873
Log2FC Ap2m1: 1.802
Log2FC Apip: 3.746
Log2FC Arl3: 1.891
Log2FC Arl6: 2.816
Log2FC Arpc1b: 2.309
Log2FC Asna1: 2.939
Log2FC Atg4c: 2.347
Log2FC Atp5c1: 2.208
Log2FC Atp5j2: 1.988
Log2FC Avpi1: 2.241
Log2FC Bcl3: 1.89
Log2FC Bloc1s1: 1.944
Log2FC Btbd2: 1.76
Log2FC C77080: 2.169
Log2FC Calca: 1.643
Log2FC Camk1: 1.856
Log2FC Caml: 1.865
Log2FC Card19: 1.753
Log2FC Casp6: 5.72
Log2FC Ccm2: 1.643
Log2FC Cct3: 1.638
Log2FC Cd1d1: 3.345
Log2FC Cdc42ep3: 3.249
Log2FC Cdpf1: 1.815
Log2FC Cenpf: 2.902
Log2FC Cfap206: 3.055
Log2FC Cfd: 2.201
Log2FC Chchd10: 3.153
Log2FC Chp1: 1.916
Log2FC Cisd2: 2.375
Log2FC Cln5: 3.447
Log2FC Cnih4: 1.926
Log2FC Cnrip1: 2.136
Log2FC Cntfr: 2.495
Log2FC Coq3: 4.105
Log2FC Cox6b1: 1.818
Log2FC Cox7a2: 2.17
Log2FC Cox7b: 2.566
Log2FC Cox18: 2.806
Log2FC Crlf2: 3.214
Log2FC DIg2: 2.734
Log2FC Dad1: 2.457
Log2FC Ddt: 1.823
Log2FC Ddx59: 3.577
Log2FC Dhrs1: 1.833
Log2FC Dnajb1: 1.888
Log2FC Dnajc5: 1.672
Log2FC Dnal4: 3.156
Log2FC Dolk: 3.023
Log2FC Dpm3: 2.927
Log2FC Dzank1: 2.226
Log2FC Edfl: 2.362
Log2FC Efccl: 3.201
Log2FC Eif3l: 1.622
Log2FC Eif4a3: 2.269
Log2FC Elk4: 1.928
Log2FC Emd: 2.135
Log2FC Endov: 2.652
Log2FC Esd: 1.658
Log2FC Esyt1: 3.657
Log2FC Fabp7: 2.365
Log2FC Fads3: 2.619
Log2FC Fam89a: 3.216
Log2FC Fam132a: 3.453
Log2FC Fam172a: 2.094
Log2FC Fam189b: 1.8
Log2FC Fbxo2: 2.965
Log2FC Fkbp1b: 1.714
Log2FC Fm43b: 4.132
Log2FC Fsd1: 3.044
Log2FC Fxyd2: 1.653
Log2FC Gdf1: 2.419
Log2FC Gla: 1.793
Log2FC Gm20721: 2.093
Log2FC Gmppa: 2.033
Log2FC Gpr75: 3.81
Log2FC Gstm1: 3.155
Log2FC H2-T23: 3.904
Log2FC H2afj: 2.76
Log2FC H2afz: 1.717
Log2FC Hagh: 3.067
Log2FC Hhatl: 3.915
Log2FC Hist3h2ba: 2.223
Log2FC Hspa8: 1.666
Log2FC Idh3b: 1.905
Log2FC Ift122: 2.378
Log2FC Igtp: 2.41
Log2FC Kcnip2: 2.308
Log2FC Kcnip4: 1.68
Log2FC Krt28: 5.481
Log2FC L3mbt12: 1.691
Log2FC Lamtor5: 1.975
Log2FC Lcmt1: 1.712
Log2FC Lingo2: 2.247
Log2FC Litaf: 2.888
Log2FC Lrrc55: 5.433
Log2FC Lxn: 2.119
Log2FC Lyrm2: 2.832
Log2FC M pl36: 2.805
Log2FC Mok: 7.257
Log2FC Mpp4: 3.465
Log2FC Mpv17: 1.73
Log2FC Mrpl18: 1.683
Log2FC Mrpl34: 2.378
Log2FC Mrpl42: 1.785
Log2FC Mrps36: 2.585
Log2FC Mtor: 1.973
